Holding throughout (assay type): cell-based
In one experiment the test system is HIV-1 pNL4-3 V7A. Put plainly: Antiviral activity against pNL4-3/V7A strain in MT4 cells (p24 estimation). The conditions noted are these: Human immunodeficiency virus 1, MT4, 96 h, read-out: pNL4-3 V7A IC50. The method in brief:
(§1)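 MT4 cells infected with HIV-1 pNL4-3 WT or V7A (defined TCID50, 1.5 h, 37° C), plated at 3×10^4 cells/well with test compound, final DMSO ≤1%. After 4 days' culture, p24 in supernatant aliquots measured by kit.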

Another experiment concerns HIV-1 strain 92HT599. Put plainly: Antiviral activity against HIV-1 strain 92HT599 in MT2 cells (p24 estimation). To be noted: HIV-1 92HT599, ~96 hours. The method in brief: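 Percent inhibition versus vehicle controls came from p24 quantified in supernatant aliquots. These were taken after ~96 h incubation of compound (DMSO ≤1%) with MT2 cells infected at 10 TCID50/30,000 cells.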

A further experiment relates to HIV-1 pNL4-3 WT. Put plainly: Antiviral activity against pNL4-3/WT strain in MT4 cells (p24 estimation). The conditions noted are these: Human immunodeficiency virus 1, MT4, 96 h, read-out: pNL4-3 WT IC50. In a few lines:
as §1

Setting [1] is: Human immunodeficiency virus 1, 0% serum binding assay, read-out: IC50 0% serum.
Where [2] appears, read: Human immunodeficiency virus 1, 40% serum binding assay, read-out: IC50 40% serum.

Like-named read-outs stand apart in the source and are kept apart here.

The source of these data is US11034718B2, “C-3 novel triterpenone with C-17 reverse amide derivatives as HIV inhibitors” (HETERO LABS LIMITED, priority 2015, dated 2021).

For orientation: IC50 means the midpoint of a concentration-inhibition curve.

For `CC(C)C1=C2[C@H]3CC[C@@H]4[C@@]5(C)CC[C@H](OC(=O)[C@H]6C[C@@H](C(=O)O)C6(C)C)C(C)(C)[C@@H]5CC[C@@]4(C)[C@]3(C)CC[C@@]2(NC(=O)C(C)(C)NC(=O)c2nccn2C)CC1=O` [Example 16, (1R,3S)-3-((((3aR,5aR,5bR,7aR,9S,11aR,11bR,13aS)-1-isopropyl-5a,5b,8,8,11a-pentamethyl-3a-(2-methyl-2-(1-methyl-1H-imidazole-2-carboxamido)propanamido)-2-oxo-3,3a,4,5,5a,5b,6,7,7a,8,9,10,11,11a,11b,12,13,13a-octadecahydro-2H-cyclopenta[a]chrysen-9-yl)oxy)carbonyl)-2,2-dimethylcyclobutane-1-carboxylic acid], the concentration for half-maximal inhibition (IC50) in the experiment with HIV-1 pNL4-3 V7A was greater than 50 nM; in the experiment with HIV-1 strain 92HT599 (setting [1]), less than 3 nM; in the experiment with HIV-1 strain 92HT599 (setting [2]), 50 to 200 nM; in the experiment with HIV-1 pNL4-3 WT it was 5.01 to 10 nM.

As for `CC(C)C1=C2[C@H]3CC[C@@H]4[C@@]5(C)CC[C@H](OC(=O)[C@H]6C[C@@H](C(=O)O)C6(C)C)C(C)(C)[C@@H]5CC[C@@]4(C)[C@]3(C)CC[C@@]2(NC(=O)C(C)(C)NC(=O)Cc2ccc(Cl)cc2)CC1=O` [Example 53, (1R,3S)-3-((((3aR,5aR,5bR,7aR,9S,11aR,11bR,13aS)-3a-(2-(2-(4-chlorophenyl)acetamido)-2-methylpropanamido)-1-isopropyl-5a,5b,8,8,11a-pentamethyl-2-oxo-3,3a,4,5,5a,5b,6,7,7a,8,9,10,11,11a,11b,12,13,13a-octadecahydro-2H-cyclopenta[a]chrysen-9-yl)oxy)carbonyl)-2,2-dimethylcyclobutane-1-carboxylic acid], the IC50 in the experiment with HIV-1 pNL4-3 V7A is less than 10 nM; in the experiment with HIV-1 strain 92HT599 (setting [1]) it was less than 3 nM; with HIV-1 strain 92HT599 (setting [2]), less than 50 nM; with HIV-1 pNL4-3 WT, less than 5 nM.

As for `Cc1cc(C(=O)NC(C)(C)C(=O)N[C@@]23CC[C@]4(C)[C@H](CC[C@@H]5[C@@]6(C)CC[C@H](OC(=O)[C@H]7C[C@@H](C(=O)O)C7(C)C)C(C)(C)[C@@H]6CC[C@]54C)C2=C(C(C)C)C(=O)C3)c(C)o1` [Example 33, (1R,3S)-3-((((3aR,5aR,5bR,7aR,9S,11aR,11bR,13aS)-3a-(2-(2,5-dimethylfuran-3-carboxamido)-2-methylpropanamido)-1-isopropyl-5a,5b,8,8,11a-pentamethyl-2-oxo-3,3a,4,5,5a,5b,6,7,7a,8,9,10,11,11a,11b,12,13,13a-octadecahydro-2H-cyclopenta[a]chrysen-9-yl)oxy)carbonyl)-2,2-dimethylcyclobutane-1-carboxylic acid], the half-maximal inhibitory concentration (IC50) in the experiment on HIV-1 pNL4-3 V7A is less than 10 nM; in the experiment on HIV-1 strain 92HT599 (setting [1]), less than 3 nM; in the experiment on HIV-1 strain 92HT599 (setting [2]), less than 50 nM; in the experiment with HIV-1 pNL4-3 WT, less than 5 nM.

As to `Cc1ccc(C(=O)NC(C)(C)C(=O)N[C@@]23CC[C@]4(C)[C@H](CC[C@@H]5[C@@]6(C)CC[C@H](OC(=O)[C@H]7C[C@@H](C(=O)O)C7(C)C)C(C)(C)[C@@H]6CC[C@]54C)C2=C(C(C)C)C(=O)C3)cn1` [Example 61, (1R,3S)-3-((((3aR,5aR,5bR,7aR,9S,11aR,11bR,13aS)-1-isopropyl-5a,5b,8,8,11a-pentamethyl-3a-(2-methyl-2-(6-methylnicotinamido)propanamido)-2-oxo-3,3a,4,5,5a,5b,6,7,7a,8,9,10,11,11a,11b,12,13,13a-octadecahydro-2H-cyclopenta[a]chrysen-9-yl)oxy)carbonyl)-2,2-dimethylcyclobutane-1-carboxylic acid], the concentration for half-maximal inhibition (IC50) in the experiment on HIV-1 pNL4-3 V7A was 10 to 50 nM; in the experiment with HIV-1 strain 92HT599 (setting [1]) it was less than 3 nM; in the experiment with HIV-1 strain 92HT599 (setting [2]) it was less than 50 nM; in the experiment on HIV-1 pNL4-3 WT, less than 5 nM.
